According to the supplement of paper PMC11451515:

Experiments:
Conditions in all cases: 48 h
P12-Ichikawa [1] = assay: cell viability relative to DMSO control; higher = less cytotoxic
Method in brief: (§1)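 Library compounds in DMSO were pin-dosed into 1536-well plates (5 μl) holding NOMO1 or SEM (500 cells/well) or P12-Ichikawa (1000 cells/well) leukemia cells, across an 11-point threefold series of 47 μM to 0.79 nM. Each cell line had been adapted for at least four passages in each medium. CellTiter-Glo One luminescence was read after 48 h at 37°C. Viability is the per-plate percentage relative to DMSO wells, with cell-free wells as background.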

SEM cells = assay: as above
Method in brief: as §1

NOMO1 [2] = assay: as above
Method in brief: as §1

P12-Ichikawa [3] = assay: AUC of viability dose-response curve (% viability x log10 dose units); higher = less sensitive
Method in brief: (§2)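 Leukemia cells adapted to each medium were seeded in 1536-well plates (500 or 1000 cells/well) and given library compounds in DMSO for 48 h at 37°C. The 11 threefold doses spanned 47 μM to 0.79 nM, and CellTiter-Glo One luminescence was normalised per plate to DMSO and cell-free wells before four-parameter log-logistic fitting on log10 dose. Area under the curve was integrated with the trapezoidal rule, scaling curves above full viability and removing curves that failed quality control.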

NOMO1 [4] = assay: as above
Method in brief: as §2

COc1cc2c(Nc3ccc(Br)cc3F)ncnc2cc1OCC1CCN(C)CC1
cell viability [%]
Conditions | NOMO1 [2] | P12-Ichikawa [1] | SEM cells
HPLM + 10% dialyzed FBS, 0.000781 µM | 93.2 | 87.8 | 45.3
HPLM + 10% dialyzed FBS, 0.00234 µM | 93.5 | 93.5 | 81.6
HPLM + 10% dialyzed FBS, 0.00702 µM | 88.9 | 91.3 | 94.3
HPLM + 10% dialyzed FBS, 0.0211 µM | 90.1 | 91.1 | 69.3
HPLM + 10% dialyzed FBS, 0.0632 µM | 75 | 91.9 | 71.4
HPLM + 10% dialyzed FBS, 0.19 µM | 85.5 | 88.4 | 76.8
HPLM + 10% dialyzed FBS, 0.569 µM | 81 | 87.8 | 72.2
HPLM + 10% dialyzed FBS, 1.71 µM | 71 | 82.8 | 65
HPLM + 10% dialyzed FBS, 5.12 µM | 74.8 | 89.9 | 79.4
HPLM + 10% dialyzed FBS, 15.4 µM | 31.5 | 73.9 | 31
HPLM + 10% dialyzed FBS, 46.1 µM | 69.8 | 86.9 | 66.2
RPMI 5 mM glucose + 10% FBS, 0.000781 µM | 79 | 82 | 67.3
RPMI 5 mM glucose + 10% FBS, 0.00234 µM | 81.7 | 81.8 | 124
RPMI 5 mM glucose + 10% FBS, 0.00702 µM | 76.5 | 79 | 111
RPMI 5 mM glucose + 10% FBS, 0.0211 µM | 75.5 | 87.7 | 112
RPMI 5 mM glucose + 10% FBS, 0.0632 µM | 75.4 | 87.3 | 118
RPMI 5 mM glucose + 10% FBS, 0.19 µM | 78.1 | 81.7 | 110
RPMI 5 mM glucose + 10% FBS, 0.569 µM | 77 | 85.2 | 84.2
RPMI 5 mM glucose + 10% FBS, 1.71 µM | 79.7 | 84.8 | 88.7
RPMI 5 mM glucose + 10% FBS, 5.12 µM | 90.3 | 80.6 | 98.1
RPMI 5 mM glucose + 10% FBS, 15.4 µM | 72.6 | 80.9 | 58.9
RPMI 5 mM glucose + 10% FBS, 46.1 µM | 73 | 83 | 74.1
RPMI 5 mM glucose + 10% dialyzed FBS, 0.000781 µM | 82.4 | 88.7 | 40
RPMI 5 mM glucose + 10% dialyzed FBS, 0.00234 µM | 79.1 | 86.1 | 83.4
RPMI 5 mM glucose + 10% dialyzed FBS, 0.00702 µM | 82.2 | 84.6 | 91
RPMI 5 mM glucose + 10% dialyzed FBS, 0.0211 µM | 88.4 | 83.3 | 89.2
RPMI 5 mM glucose + 10% dialyzed FBS, 0.0632 µM | 88.2 | 88.3 | 63.7
RPMI 5 mM glucose + 10% dialyzed FBS, 0.19 µM | 85.2 | 88.8 | 80.7
RPMI 5 mM glucose + 10% dialyzed FBS, 0.569 µM | 86.8 | 84.5 | 81.7
RPMI 5 mM glucose + 10% dialyzed FBS, 1.71 µM | 70.7 | 84.4 | 63.2
RPMI 5 mM glucose + 10% dialyzed FBS, 5.12 µM | 88.6 | 76.9 | 79.1
RPMI 5 mM glucose + 10% dialyzed FBS, 15.4 µM | 41.1 | 68 | 42.5
RPMI 5 mM glucose + 10% dialyzed FBS, 46.1 µM | 84.4 | 79.8 | 63.5

AUC of viability dose-response curve
Conditions | HPLM + 10% dialyzed FBS | RPMI 5 mM glucose + 10% FBS | RPMI 5 mM glucose + 10% dialyzed FBS
NOMO1 [4] | 373 | 373 | 380
P12-Ichikawa [3] | 419 | 396 | 398

CN1\N=C(N)/C2=C[N]([C@@H]3O[C@H](CO[P](O)(O)=O)[C@@H](O)[C@H]3O)C4=C2C1=NC=N4
cell viability [%]
Conditions | NOMO1 [2] | P12-Ichikawa [1] | SEM cells
HPLM + 10% dialyzed FBS, 0.000781 µM | 108 | 112 | 77.9
HPLM + 10% dialyzed FBS, 0.00234 µM | 111 | 122 | 79.8
HPLM + 10% dialyzed FBS, 0.00702 µM | 124 | 110 | 42.7
HPLM + 10% dialyzed FBS, 0.0211 µM | 111 | 109 | 45.6
HPLM + 10% dialyzed FBS, 0.0632 µM | 104 | 111 | 38
HPLM + 10% dialyzed FBS, 0.19 µM | 88.6 | 96.1 | 25.8
HPLM + 10% dialyzed FBS, 0.569 µM | 74.6 | 77.9 | 13.2
HPLM + 10% dialyzed FBS, 1.71 µM | 67.7 | 53 | 8.14
HPLM + 10% dialyzed FBS, 5.12 µM | 59.5 | 54 | 4.15
HPLM + 10% dialyzed FBS, 15.4 µM | 30.1 | 43.2 | 2.69
HPLM + 10% dialyzed FBS, 46.1 µM | 16.2 | 37.9 | 2.9
RPMI 5 mM glucose + 10% FBS, 0.000781 µM | 109 | 114 | 107
RPMI 5 mM glucose + 10% FBS, 0.00234 µM | 107 | 110 | 109
RPMI 5 mM glucose + 10% FBS, 0.00702 µM | 112 | 105 | 63.8
RPMI 5 mM glucose + 10% FBS, 0.0211 µM | 99.9 | 95.1 | 65.2
RPMI 5 mM glucose + 10% FBS, 0.0632 µM | 99.2 | 93.9 | 50.3
RPMI 5 mM glucose + 10% FBS, 0.19 µM | 89.6 | 75.5 | 35.3
RPMI 5 mM glucose + 10% FBS, 0.569 µM | 93.7 | 72 | 16.7
RPMI 5 mM glucose + 10% FBS, 1.71 µM | 77.3 | 60.6 | 7.7
RPMI 5 mM glucose + 10% FBS, 5.12 µM | 84.1 | 52.7 | 6.79
RPMI 5 mM glucose + 10% FBS, 15.4 µM | 52.1 | 44.7 | 3.71
RPMI 5 mM glucose + 10% FBS, 46.1 µM | 50 | 41.4 | 3.23
RPMI 5 mM glucose + 10% dialyzed FBS, 0.000781 µM | 98.8 | 119 | 88.7
RPMI 5 mM glucose + 10% dialyzed FBS, 0.00234 µM | 114 | 114 | 76
RPMI 5 mM glucose + 10% dialyzed FBS, 0.00702 µM | 104 | 108 | 40
RPMI 5 mM glucose + 10% dialyzed FBS, 0.0211 µM | 105 | 113 | 38.9
RPMI 5 mM glucose + 10% dialyzed FBS, 0.0632 µM | 94.7 | 101 | 21.1
RPMI 5 mM glucose + 10% dialyzed FBS, 0.19 µM | 82.3 | 89.4 | 13.4
RPMI 5 mM glucose + 10% dialyzed FBS, 0.569 µM | 72.2 | 72.3 | 8.31
RPMI 5 mM glucose + 10% dialyzed FBS, 1.71 µM | 61.5 | 60.4 | 6.58
RPMI 5 mM glucose + 10% dialyzed FBS, 5.12 µM | 52.6 | 58.3 | 4.28
RPMI 5 mM glucose + 10% dialyzed FBS, 15.4 µM | 38 | 51 | 3.22
RPMI 5 mM glucose + 10% dialyzed FBS, 46.1 µM | 30.6 | 41.4 | 2.94

AUC of viability dose-response curve
Conditions | HPLM + 10% dialyzed FBS | RPMI 5 mM glucose + 10% FBS | RPMI 5 mM glucose + 10% dialyzed FBS
NOMO1 [4] | 341 | 393 | 347
P12-Ichikawa [3] | 353 | 329 | 346
